According to patent publication US9034918B2, “Composition including at least one trans-cinnamaldehyde and the use thereof in the treatment of bacterial infections, specifically in the treatment of nosocomial infections” (SEPTEOS, priority 2009, dated 2015):

Assays:
Type in all cases: cell-based
Enterococcus strain 8152 = test: Antibiogram by diffusion technique (CA-SFM 2008); design: Diameter: unit not given here
From the text: (§1) Three clinical categories were selected for interpretation of the in vitro sensitivity tests: sensitive (S), resistant (R) and intermediate (I). • The strains categorized S are those for which the probability of therapeutic success is high in the case of treatment by systemic route with the dosing schedule recommended in the summary of product characteristics (SPC) prepared by the French Health Products Safety Agency (AFSSAPS). • The strains categorized R are those for which there is a high probability of therapeutic failure regardless of treatment type and antibiotic dose. • The strains categorized I are those for which therapeutic success cannot be predicted. These strains form a heterogeneous group for which the results obtained in vitro are not predictive of therapeutic success. […] The intermediate category is also a buffer zone which takes into account technical and biological uncertainties.
(§2) The sensitivity of strains to antibiotics was determined by a diffusion technique according to the 2008 recommendations by the Antibiogram Committee of the French Microbiology Society (CA-SFM).
(§3) In terms of critical concentrations and diameters, strains are categorized as follows: • sensitive (S): strains for which the MIC of the antibiotic tested is less than or equal to the lower critical concentration c, which is equivalent to a diameter greater than or equal to the critical diameter D; • resistant (R): strains for which the MIC of the antibiotic tested are greater than the upper critical concentration C, corresponding to a diameter less than the critical diameter d; • intermediate sensitivity (I): strains for which the MIC of the antibiotic tested and the corresponding diameter are between the two critical concentrations and the two critical diameters.
(§4) The tests were carried out on Mueller-Hinton agar. An inoculum adjusted to 0.5 on the McFarland scale is then diluted to 1/100. Petri dishes are inoculated by swabbing. The dishes are read after 24 hours of incubation at 37° C.
(§5) The raw results are then interpreted according to the interpretative reading rules of the CA-SFM.

Enterococcus strain 8153 = test: Antibiogram by diffusion technique (CA-SFM 2008); design: Diameter: unit not given here
From the text: as §1, §2, §3, §4, §5

[1] = tested on: strain 9007, Pseudomonas aeruginosa, with VIM-2 carbapenemase; test: Antibiogram by diffusion technique (CA-SFM 2008)
From the text: as §1, §2, §3, §4, §5

[2] = tested on: Enterococcus faecium (9001); test: Antibiogram by diffusion technique (CA-SFM 2008); details: strain 9001
From the text: as §1, §2, §3, §4, §5

[3] = tested on: strain 9010, Acinetobacter baumannii, with VEB-1 ESBL; test: Antibiogram by diffusion technique (CA-SFM 2008)
From the text: as §1, §2, §3, §4, §5

E. coli ATCC 25922 = test: Antibiogram by diffusion technique (CA-SFM 2008); design: Diameter (D): unit not given here
From the text: Three clinical categories were selected for interpretation of the in vitro sensitivity tests: sensitive (S), resistant (R) and intermediate (I). • The strains categorized S are those for which the probability of therapeutic success is high in the case of treatment by systemic route with the dosing schedule recommended in the summary of product characteristics (SPC) prepared by the French Health Products Safety Agency ([…]). • The strains categorized R are those for which there is a high probability of therapeutic failure regardless of treatment type and antibiotic dose. • The strains categorized I are those for which therapeutic success cannot be predicted. These strains form a heterogeneous group for which the results obtained in vitro are not predictive of therapeutic success. […] The intermediate category is also a buffer zone which takes into account technical and biological uncertainties. The sensitivity of strains to antibiotics was determined by a diffusion technique according to the 2008 recommendations by the Antibiogram Committee of the French Microbiology Society (CA-SFM). In terms of critical concentrations and diameters, strains are categorized as follows: • sensitive (S): strains for which the MIC of the antibiotic tested is less than or equal to the lower critical concentration c, which is equivalent to a diameter greater than or equal to the critical diameter D; • resistant (R): strains for which the MIC of the antibiotic tested are greater than the upper critical concentration C, corresponding to a diameter less than the critical diameter d; • intermediate sensitivity (I): strains for which the MIC of the antibiotic tested and the corresponding diameter are between the two critical concentrations and the two critical diameters. The tests were carried out on Mueller-Hinton agar. An inoculum adjusted to 0.5 on the McFarland scale is then diluted to 1/100. Petri dishes are inoculated by swabbing. The dishes are read after 24 hours of incubation at 37° C. The raw results are then interpreted according to the interpretative reading rules of the CA-SFM. Two examples: all strains of methicillin-resistant Staphylococcus are resistant to all beta-lactams, and the same is true for gentamicin-resistant strains; golden staph is necessarily resistant to kanamycin (and amikacin) and tobramycin. The quality of the diffusion method is controlled using E. coli strain ATCC 25922.

[4] = tested on: Pseudomonas aeruginosa strain 8129; test: Antibiogram by diffusion technique (CA-SFM 2008); design: D: unit not given here
From the text: as §1, §2, §3, §4, §5

[5] = tested on: Pseudomonas aeruginosa strain 8132; test: Antibiogram by diffusion technique (CA-SFM 2008); design: D: unit not given here
From the text: as §1, §2, §3, §4, §5

[6] = tested on: Pseudomonas aeruginosa strain 8134; test: Antibiogram by diffusion technique (CA-SFM 2008); design: D: unit not given here
From the text: as §1, §2, §3, §4, §5

[7] = tested on: golden staph (S. aureus) strain 8239; test: Antibiogram by diffusion technique (CA-SFM 2008); design: D: unit not given here
From the text: as §1, §2, §3, §4, §5

[8] = tested on: golden staph (S. aureus) strain 8240; test: Antibiogram by diffusion technique (CA-SFM 2008); design: D: unit not given here
From the text: as §1, §2, §3, §4, §5

E. coli strain 8156 = test: Antibiogram by diffusion technique (CA-SFM 2008); design: D: unit not given here
From the text: as §1, §2, §3, §4, §5

[9] = tested on: golden staph (S. aureus) strain 8147; test: Antibiogram by diffusion technique (CA-SFM 2008); design: D: unit not given here
From the text: as §1, §2, §3, §4, §5

E. coli strain 8154 = test: Antibiogram by diffusion technique (CA-SFM 2008); design: D: unit not given here
From the text: as §1, §2, §3, §4, §5

E. coli strain 8157 = test: Antibiogram by diffusion technique (CA-SFM 2008); design: D: unit not given here
From the text: as §1, §2, §3, §4, §5

E. coli strain 8155 = test: Antibiogram by diffusion technique (CA-SFM 2008); design: D: unit not given here
From the text: as §1, §2, §3, §4, §5

[10] = tested on: Pseudomonas aeruginosa strain 8128; test: Antibiogram by diffusion technique (CA-SFM 2008); design: D: unit not given here
From the text: as §1, §2, §3, §4, §5

E. coli strain 9003 = test: Antibiogram by diffusion technique (CA-SFM 2008)
From the text: as §1, §2, §3, §4, §5

[11] = tested on: Enterobacter aerogenes (9004); test: Antibiogram by diffusion technique (CA-SFM 2008); details: strain 9004
From the text: as §1, §2, §3, §4, §5

[12] = tested on: Gram-positive bacteria and Gram-negative bacteria, resistant strains; test: Agar test, summary over the strains tested; details: also on resistant strains, low volume concentrations
From the text: For bacteria to have good accessibility (aqueous phase multiplication only) to essential oils, it is essential to find a method of aqueous phase solubilization. This step is neglected in much work that directly uses the lipid phase, which is inaccessible to bacteria (oil-soaked disc placed on agar). Moreover, for the topical use of oils, this solubilization phase is also essential, and with the goal of practical application, surfactants and solubilization adjuvants are also selected for their satisfactory cutaneous tolerance.
The final preparation includes: 1.0 ml of essential oil, 3.4 ml of Tween 80 and 5.6 ml of 10% molar propylene glycol aqueous solution.
The day before the test, inoculate the strains in BH medium and on tilted MHA. Prepare test tubes containing 19 ml and 18 ml of MHA. Prepare test tubes containing 5 ml of 10% molar propylene glycol for the various dilutions.
On the day of the test, solubilize the trans-cinnamaldehyde as follows: • 1 ml of trans-cinnamaldehyde • 3.4 ml of Tween 80 • 5.6 ml of 10% molar propylene glycol.
When the trans-cinnamaldehyde is solubilized, prepare successive 1/2 dilutions in 10% molar propylene glycol.
Add 1 ml of suitable dilutions in the test tubes containing 19 ml of medium, homogenize well and pour into Petri dishes. […]

Molecule: C[C@H]1COc2c(N3CCN(C)CC3)c(F)cc3c(=O)c(C(=O)O)cn1c23 [Levofloxacin]
- Category (Enterococcus strain 8152): S
- Diameter (Enterococcus strain 8152): 29
- Category (Enterococcus strain 8153): S
- Diameter (Enterococcus strain 8153): 26
- Category [1]: S
- Category [2]: R
- Category [3]: R
- Category (Cat.) (E. coli ATCC 25922): S
- Diameter (D) (E. coli ATCC 25922): 31
- Cat. [4]: S
- D [4]: 26
- Cat. [5]: R
- D [5]: 0
- Cat. [6]: R
- D [6]: 0
- Cat. [7]: R
- D [7]: 10
- Cat. [8]: R
- D [8]: 0
- Cat. (E. coli strain 8156): S
- D (E. coli strain 8156): 31
- Cat. [9]: R
- D [9]: 10
- Cat. (E. coli strain 8154): S
- D (E. coli strain 8154): 36
- Cat. (E. coli strain 8157): R
- D (E. coli strain 8157): 11
- Cat. (E. coli strain 8155): S
- D (E. coli strain 8155): 31
- Cat. [10]: S
- D [10]: 23

Molecule: Gentamicin
- Category (Enterococcus strain 8152): R
- Diameter (Enterococcus strain 8152): 15
- Category (Enterococcus strain 8153): R
- Diameter (Enterococcus strain 8153): 14
- Category [1]: S
- Category [2]: S
- Category (E. coli strain 9003): S
- Category [3]: R
- Category [11]: S
- Category (Cat.) (E. coli ATCC 25922): S
- Diameter (D) (E. coli ATCC 25922): 25
- Cat. [4]: S
- D [4]: 21
- Cat. [5]: R
- D [5]: 16
- Cat. [6]: R
- D [6]: 0
- Cat. [7]: S
- D [7]: 28
- Cat. [8]: S
- D [8]: 27
- Cat. (E. coli strain 8156): S
- D (E. coli strain 8156): 25
- Cat. [9]: S
- D [9]: 26
- Cat. (E. coli strain 8154): S
- D (E. coli strain 8154): 21
- Cat. (E. coli strain 8157): S
- D (E. coli strain 8157): 25
- Cat. (E. coli strain 8155): S
- D (E. coli strain 8155): 21
- Cat. [10]: S
- D [10]: 27

Molecule: O=C/C=C/c1ccccc1 [trans-cinnamaldehyde]
- Spectrum of antibacterial activity [12]: antibacterial activity on both Gram-positive bacteria and Gram-negative bacteria
